This is an account of results in PubChem BioAssay (NCI).

Holding throughout (assay): NCI anticancer screen, dose series, 48 h
Experiment [1] concerns SNB-19 CNS.
The test system of experiment [2] is MALME-3M melanoma.
The subject of experiment [3] is TK-10 renal.
Experiment [4] relates to K-562 leukemia.
Experiment [5] concerns OVCAR-4 ovarian.
In experiment [6] the test system is HCC-2998 colon.
Experiment [7] concerns RPMI-8226 leukemia.
For experiment [8], the system named is HCT-15 colon.
The subject of experiment [9] is SF-539 CNS.
For experiment [10], the system named is OVCAR-5 ovarian.

Molecules are shown by their SMILES. Several values for one entry are separate records, joined by “and”; a condition that tells them apart may be missing. Equal values may be shown once.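 Briefly, cells in 96-well plates were exposed to five compound concentrations for 48 h, and endpoints were estimated by linear interpolation. GI50 = concentration required for 50% inhibition of growth. Definition used: TGI = concentration required for complete inhibition of growth.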 A value given as a limit tells only on which side of the number the result lay.

Turning to `N#Cc1c(-c2ccc([N+](=O)[O-])cc2)cc(-c2ccc(Nc3ccnc4cc(Cl)ccc34)cc2)[nH]c1=O`, the TGI in experiment [1], in experiment [2], in experiment [3], in experiment [4], in [5] and in experiment [6] was > 100 µM in each case. Also, the TGI in experiment [7], in experiment [8], in experiment [9] and in [10] was > 100 µM each time.
With `Cc1cc([N+](=O)[O-])c(C)c2c1[nH]c1ccc(Cl)cc12`, the TGI in experiment [1], in experiment [2], in [3], in [4], in experiment [5] and in experiment [6] was > 100 µM in each case. Moreover, the TGI in experiment [7], in experiment [8], in experiment [9] and in experiment [10] was > 100 µM each time.
`Cc1c2ccnc(C(N)=O)c2c(C)c2c1[nH]c1ccccc12`: the GI50 in experiment [1] is 4.45 µM; in experiment [2], 5.02 µM; in experiment [4], 3.9 µM; in experiment [5], 7.56 µM; in experiment [6], 4.67 µM; in experiment [7] it was 3.58 µM. The figures for the GI50 in [9] and in experiment [10] were 3.75 µM and 6.41 µM, respectively. Moreover, the TGI in [1] is 46.9 µM and 19.9 µM; in experiment [2] it was 19.3 µM; in experiment [3], 22.5 µM; in experiment [4], 48.2 µM and > 100 µM; in [5], 29.7 µM and 93.7 µM; in experiment [6], 50 µM and 19.4 µM. Further, the TGI was 34.5 µM and 16.4 µM in experiment [7]; 41.1 µM and > 100 µM in [8]; 23.9 µM and 13.9 µM in experiment [9]; 37.4 µM and 33.3 µM in experiment [10].
As for `O=c1oc2ccc3ccccc3c2cc1-c1cn2ccsc2n1`, the TGI is > 100 µM in experiment [1]; 41.1 µM in experiment [2]; 33.9 µM in experiment [3]; 82.4 µM in experiment [4]; 40.7 µM in experiment [5]; 67.9 µM in experiment [6]. Also, the TGI in experiment [7] came to 46.2 µM; in experiment [8], 35.9 µM; in experiment [9] it was 51.2 µM; in experiment [10], 66.6 µM.
Regarding `CN(C)c1nc(Oc2nc(N(C)C)nc(N(C)C)n2)nc(N(C)C)n1`, the TGI in [1], in experiment [2], in [3], in [4], in experiment [5] and in experiment [6] was > 100 µM each time. Also, the TGI in [7], in experiment [8], in experiment [9] and in [10] was > 100 µM each time.
With `CCOC(=O)C1C(c2ccc(Cl)cc2Cl)NC(c2ccc(C)cc2)C(C(=O)OC)S1(=O)=O` (stereo not drawn), the TGI in experiment [1], in [2], in [3], in experiment [4], in [5] and in [6] was > 100 µM throughout. Moreover, the TGI in experiment [7], in experiment [8], in experiment [9] and in experiment [10] was > 100 µM throughout.
For `O=C(O)c1nc2ccc(C(F)(F)F)cc2[nH]c1=O`, the TGI in experiment [1], in experiment [2], in experiment [3], in [4], in experiment [5] and in experiment [6] was > 100 µM throughout. Also, the TGI in experiment [7], in experiment [8], in experiment [9] and in [10] was > 100 µM in each case.
As for `c1c[nH]c(-c2cccc3nsnc23)c1`, the TGI in experiment [1], in experiment [2], in experiment [3], in experiment [4], in [5] and in [6] was > 100 µM each time. In addition, the TGI in [7], in [8], in [9] and in [10] was > 100 µM throughout.
Consider `CN(CCN1CCCC1)C1CCc2cc(Cl)c(Cl)cc2C1` (stereo not drawn), for which the TGI is 38.7 µM in experiment [1]; 33.6 µM in [2]; 30.9 µM in experiment [3]; > 100 µM in experiment [4]; 51.1 µM in experiment [5]; 18.2 µM in experiment [6]. The TGI was determined as 55.4 µM in experiment [7], 26.5 µM in experiment [8], 31.4 µM in [9] and 31.4 µM in experiment [10].
Consider `S=C(Cc1ccc2c(c1)Sc1ccccc1O2)N1CCOCC1`, for which the TGI in experiment [1] is > 100 µM; in [2], 90.2 µM; in experiment [3] it was > 100 µM; in experiment [4], > 100 µM; in experiment [5] it was > 100 µM; in [6], > 100 µM. The TGI is > 100 µM in [7], > 100 µM in experiment [8], 61.1 µM in [9] and > 100 µM in experiment [10].
